Results taken from US9695155B2, “Herbicidal substituted pyrimidinyloxy benzene compounds” (E. I. DU PONT DE NEMOURS AND COMPANY, priority 2013, dated 2017).

Columns and labels:
rice = assay: Test B flooded paddy test; format: in vivo, Oryza sativa; conditions: Flood, 250 g ai/ha, 0 to 100 scale where 0 is no effect and 100 is complete control
Summary of the method: (§1)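 Post-emergence paddy-water application at the 2-leaf stage, with 3 cm flood kept for the whole test. Response was judged visually relative to controls after 13 to 15 greenhouse days, 0 indicating no effect and 100 complete control.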

Heteranthera limosa = assay: Test B flooded paddy test; format: in vivo; conditions: Flood, 250 g ai/ha, 0 to 100 scale where 0 is no effect and 100 is complete control
Summary of the method: as §1

blackgrass = assay: Test C postemergence; format: in vivo, Alopecurus myosuroides; conditions: for Plant response rating (0 to 100), Blackgrass: 16 g ai/ha, 0 is no effect, 100 is complete control
From the text: (§2) Seeds of plant species selected from blackgrass (Alopecurus myosuroides), Italian ryegrass (Lolium multiflorum), wheat, winter (winter wheat, Triticum aestivum), galium (catchweed bedstraw, Galium aparine), corn (Zea mays), large (Lg) crabgrass (Digitaria sanguinalis), giant foxtail (Setaria faberii), johnsongrass (Sorghum halepense), lambsquarters (Chenopodium album), morningglory (Ipomoea coccinea), yellow nutsedge (Cyperus esculentus), pigweed (Amaranthus retroflexus), ragweed (common ragweed, Ambrosia elatior), soybean (Glycine max), barnyardgrass (Echinochloa crus-galli), oilseed rape (Brassica napus), waterhemp (common waterhemp, Amaranthus rudis), kochia (Kochia scoparia), wild oat (Avena fatua), surinam grass (Brachiaria decumbens), foxtail, green (green foxtail, Setaria viridis), goosegrass (Eleusine indica), bromegrass, downy (downy bromegrass, Bromus tectorum), nightshade (eastern black nightshade, Solanum ptycanthum), cocklebur (common cocklebur, Xanthium strumarium), cupgrass, woolly (woolly cupgrass, Eriochloa villosa), bermudagrass (Cynodon dactylon), sunflower, (common oilseed sunflower, Helianthus annuus), Russian thistle (Salsola kali), and velvetleaf (Abutilon theophrasti) were planted into a blend of loam soil and sand and treated preemergence with test chemicals formulated in a non-phytotoxic solvent mixture which included a surfactant.
(§3) At the same time, plants selected from these crop and weed species and also barley, winter (winter barley, Hordeum vulgare), windgrass (Apera spica-venti), chickweed (common chickweed, Stellaria media), deadnettle (henbit deadnettle, Lamium amplexicaule), and canarygrass (littleseed canarygrass, Phalaris minor) were planted in pots containing Redi-Earth® planting medium (Scotts Company, 14111 Scottslawn Road, Marysville, Ohio 43041) comprising spaghnum peat moss, vermiculite, wetting agent and starter nutrients and treated with postemergence applications of test chemicals formulated in the same manner. Plants ranged in height from 2 to 18 cm (1- to 4-leaf stage) for postemergence treatments. Treated plants and controls were maintained in a greenhouse for 13 to 15 days, after which time all species were compared to controls and visually evaluated. Plant response ratings, summarized in Table C, are based on a scale of 0 to 100 where 0 is no effect and 100 is complete control. A dash (-) response means no test result.

Italian ryegrass = assay: Test C postemergence; format: in vivo, Lolium multiflorum; conditions: for Plant response rating (0 to 100), Ryegrass, Italian: 16 g ai/ha, 0 is no effect, 100 is complete control
From the text: as §2, §3

lambsquarters = assay: Test C postemergence; format: in vivo, Chenopodium album; conditions: for Plant response rating (0 to 100), Lambsquarters: 16 g ai/ha, 0 is no effect, 100 is complete control
From the text: as §2, §3

pigweed = assay: Test C postemergence; format: in vivo, Amaranthus retroflexus; conditions: for Plant response rating (0 to 100), Pigweed: 16 g ai/ha, 0 is no effect, 100 is complete control
From the text: as §2, §3

soybean = assay: Test C postemergence; format: in vivo, Glycine max; conditions: for Plant response rating (0 to 100), Soybean: 16 g ai/ha, 0 is no effect, 100 is complete control
From the text: as §2, §3

barnyardgrass = assay: Test C postemergence; format: in vivo, Echinochloa crus-galli; conditions: for Plant response rating (0 to 100), Barnyardgrass: 16 g ai/ha, 0 is no effect, 100 is complete control
From the text: as §2, §3

kochia = assay: Test C postemergence; format: in vivo, Kochia scoparia; conditions: for Plant response rating (0 to 100), Kochia: 16 g ai/ha, 0 is no effect, 100 is complete control
From the text: as §2, §3

corn = assay: Test A preemergence; format: in vivo, Zea mays; conditions: Zea mays, pre-emergence, 240 h, read-out: Corn plant response rating
Summary of the method: (§4)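 Pre- and postemergence greenhouse screen. Soil: loam + sand. Spray carrier: solvent mixture, non-phytotoxic, with surfactant. Post timing at 1–2 leaves, height 2–10 cm. Readout: visual injury on a 0–100 scale roughly 10 days after application, untreated plants as reference.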

morningglory = assay: Test A postemergence; format: in vivo, Ipomoea spp.; conditions: Ipomoea, post-emergence, 240 h
Summary of the method: as §4

[1] = 125 g ai/ha, postemergence, visual rating, scale 0 to 100 (0 no effect, 100 complete control)
[2] = Postemergence, 31 g ai/ha, scale 0 to 100 (0 no effect, 100 complete control), 13 to 15 days
[3] = Postemergence, 62 g ai/ha, scale 0 to 100 (0 no effect, 100 complete control)
[4] = 31 g ai/ha, postemergence, visual rating, scale 0 to 100 (0 no effect, 100 complete control), 13 to 15 days

FCc1cccc(Oc2ncc(Br)cn2)c1-n1cc(C(F)(F)F)cn1 [Compound 120]
Plant response rating, Rice (rice): 0 | Plant response rating, Ducksalad (Heteranthera limosa): 95 | Plant response rating (0 to 100), Blackgrass (blackgrass; postemergence): 0 | Plant response rating, Blackgrass (blackgrass; [1]): 30 | Plant response rating, Blackgrass (blackgrass; [2]): 5 | Plant response rating, Blackgrass (blackgrass; [3]): 5 | Plant response rating (0 to 100), Ryegrass, Italian (Italian ryegrass; postemergence): 0 | Plant response rating, Ryegrass, Italian (Italian ryegrass; [1]): 5 | Plant response rating, Ryegrass, Italian (Italian ryegrass; [3]): 0 | Plant response rating (0 to 100), Lambsquarters (lambsquarters; postemergence): 55 | Plant response rating, Lambsquarters (lambsquarters; [1]): 85 | Plant response rating, Lambsquarters (lambsquarters; [3]): 70 | Plant response rating (0 to 100), Pigweed (pigweed; postemergence): 40 | Plant response rating, Pigweed (pigweed; [1]): 95 | Plant response rating, Pigweed (pigweed; [3]): 85 | Plant response rating (0 to 100), Soybean (soybean; postemergence): 30 | Plant response rating, Soybean (soybean; [1]): 80 | Plant response rating, Soybean (soybean; [3]): 30 | Plant response rating (0 to 100), Barnyardgrass (barnyardgrass; postemergence): 5 | Plant response rating, Barnyardgrass (barnyardgrass; [1]): 10 | Plant response rating, Barnyardgrass (barnyardgrass; [2]): 5 | Plant response rating, Barnyardgrass (barnyardgrass; [3]): 10 | Plant response rating (0 to 100), Kochia (kochia; postemergence): 75 | Plant response rating, Kochia (kochia; [1]): 100 | Plant response rating, Kochia (kochia; [3]): 95

Fc1cccc(Oc2ncc(Cl)cn2)c1-n1cc(C2CC2)nn1 [Compound 155]
Plant response rating, Rice (rice): 50 | Plant response rating, Ducksalad (Heteranthera limosa): 100 | Plant response rating (0 to 100), Blackgrass (blackgrass; postemergence): 0 | Blackgrass plant response rating (blackgrass; [4]): 5 | Plant response rating, Blackgrass (blackgrass; [1]): 5 | Plant response rating, Blackgrass (blackgrass; [3]): 5 | Plant response rating (0 to 100), Ryegrass, Italian (Italian ryegrass; postemergence): 0 | Ryegrass, Italian plant response rating (Italian ryegrass; [4]): 0 | Plant response rating, Ryegrass, Italian (Italian ryegrass; [1]): 10 | Plant response rating, Ryegrass, Italian (Italian ryegrass; [3]): 10 | Plant response rating (0 to 100), Lambsquarters (lambsquarters; postemergence): 65 | Lambsquarters plant response rating (lambsquarters; [4]): 90 | Plant response rating, Lambsquarters (lambsquarters; [1]): 98 | Plant response rating, Lambsquarters (lambsquarters; [3]): 98 | Plant response rating (0 to 100), Pigweed (pigweed; postemergence): 80 | Pigweed plant response rating (pigweed; [4]): 75 | Plant response rating, Pigweed (pigweed; [1]): 98 | Plant response rating, Pigweed (pigweed; [3]): 98 | Plant response rating (0 to 100), Soybean (soybean; postemergence): 5 | Soybean plant response rating (soybean; [4]): 70 | Plant response rating, Soybean (soybean; [1]): 80 | Plant response rating, Soybean (soybean; [3]): 75 | Plant response rating (0 to 100), Barnyardgrass (barnyardgrass; postemergence): 0 | Barnyardgrass plant response rating (barnyardgrass; [4]): 5 | Plant response rating, Barnyardgrass (barnyardgrass; [1]): 10 | Plant response rating, Barnyardgrass (barnyardgrass; [3]): 5 | Plant response rating (0 to 100), Kochia (kochia; postemergence): 80 | Kochia plant response rating (kochia; [4]): 98 | Plant response rating, Kochia (kochia; [1]): 100 | Plant response rating, Kochia (kochia; [3]): 98

Fc1cnc(Oc2ccccc2-n2cc(Br)cn2)nc1 [Compound 10, 2-[2-(4-bromo-1H-pyrazol-1-yl)phenoxy]-5-fluoropyrimidine]
plant injury at 125 g/ha (corn; 125 g ai/ha, 0 to 100 scale where 0 is no effect and 100 is complete control): 0% | plant injury at 500 g/ha (corn; 500 g ai/ha, 0 to 100 scale, 0 no effect, 100 complete control, approx. 10 days): 20% | pest or weed control at 125 g/ha (morningglory; 125 g ai/ha, 0 to 100 scale where 0 is no effect and 100 is complete control, read-out: Plant response rating, Morningglory): 90% | pest or weed control at 500 g/ha (morningglory; 500 g ai/ha, 0 to 100 scale, 0 no effect, 100 complete control, read-out: Plant response rating Morningglory): 100% | plant injury at 250 g/ha (rice; Oryza sativa, read-out: Plant response rating, Rice): 0% | pest or weed control at 250 g/ha (Heteranthera limosa; Heteranthera limosa, read-out: Plant response rating, Ducksalad): 75% | pest or weed control at 125 g/ha (blackgrass; Alopecurus myosuroides, post-emergence, 125 g ai/ha, postemergence, read-out: Plant response rating (0 to 100), Blackgrass): 40% | pest or weed control at 250 g/ha (blackgrass; Alopecurus myosuroides, post-emergence, 250 g ai/ha, postemergence, read-out: Plant response rating (0 to 100), Blackgrass): 75% | pest or weed control at 31 g/ha (blackgrass; Alopecurus myosuroides, post-emergence, Postemergence, 31 g ai/ha, scale 0 to 100 (0 no effect, 100 complete control), 13 to 15 days, read-out: Plant response rating, Blackgrass): 5% | pest or weed control at 62 g/ha (blackgrass; Alopecurus myosuroides, post-emergence, Postemergence, 62 g ai/ha, scale 0 to 100 (0 no effect, 100 complete control), read-out: Plant response rating, Blackgrass): 5% | pest or weed control at 125 g/ha (Italian ryegrass; Lolium multiflorum, post-emergence, 125 g ai/ha, postemergence, read-out: Plant response rating (0 to 100), Ryegrass, Italian): 5% | pest or weed control at 250 g/ha (Italian ryegrass; Lolium multiflorum, post-emergence, 250 g ai/ha, postemergence, read-out: Plant response rating (0 to 100), Ryegrass, Italian): 10% | pest or weed control at 31 g/ha (Italian ryegrass; Lolium multiflorum, post-emergence, Postemergence, 31 g ai/ha, scale 0 to 100 (0 no effect, 100 complete control), 13 to 15 days, read-out: Plant response rating, Ryegrass, Italian): 0% | pest or weed control at 62 g/ha (Italian ryegrass; Lolium multiflorum, post-emergence, Postemergence, 62 g ai/ha, scale 0 to 100 (0 no effect, 100 complete control), read-out: Plant response rating, Ryegrass, Italian): 0% | pest or weed control at 125 g/ha (lambsquarters; Chenopodium album, post-emergence, 125 g ai/ha, postemergence, read-out: Plant response rating (0 to 100), Lambsquarters): 75% | pest or weed control at 250 g/ha (lambsquarters; Chenopodium album, post-emergence, 250 g ai/ha, postemergence, read-out: Plant response rating (0 to 100), Lambsquarters): 98% | pest or weed control at 31 g/ha (lambsquarters; Chenopodium album, post-emergence, Postemergence, 31 g ai/ha, scale 0 to 100 (0 no effect, 100 complete control), 13 to 15 days, read-out: Plant response rating, Lambsquarters): 55% | pest or weed control at 62 g/ha (lambsquarters; Chenopodium album, post-emergence, Postemergence, 62 g ai/ha, scale 0 to 100 (0 no effect, 100 complete control), read-out: Plant response rating, Lambsquarters): 55% | pest or weed control at 125 g/ha (pigweed; Amaranthus retroflexus, post-emergence, 125 g ai/ha, postemergence, read-out: Plant response rating (0 to 100), Pigweed): 100% | pest or weed control at 250 g/ha (pigweed; Amaranthus retroflexus, post-emergence, 250 g ai/ha, postemergence, read-out: Plant response rating (0 to 100), Pigweed): 100% | pest or weed control at 31 g/ha (pigweed; Amaranthus retroflexus, post-emergence, Postemergence, 31 g ai/ha, scale 0 to 100 (0 no effect, 100 complete control), 13 to 15 days, read-out: Plant response rating, Pigweed): 75% | pest or weed control at 62 g/ha (pigweed; Amaranthus retroflexus, post-emergence, Postemergence, 62 g ai/ha, scale 0 to 100 (0 no effect, 100 complete control), read-out: Plant response rating, Pigweed): 98% | Soybean plant response rating (crop injury, 0-100 scale) at 125 g/ha (soybean; Glycine max, post-emergence, 125 g ai/ha, postemergence, read-out: Plant response rating (0 to 100), Soybean): 85% | Soybean plant response rating (crop injury, 0-100 scale) at 250 g/ha (soybean; Glycine max, post-emergence, 250 g ai/ha, postemergence): 95% | Soybean plant response rating (crop injury, 0-100 scale) at 31 g/ha (soybean; Glycine max, post-emergence, Postemergence, 31 g ai/ha, scale 0 to 100 (0 no effect, 100 complete control), 13 to 15 days): 50% | Soybean plant response rating (crop injury, 0-100 scale) at 62 g/ha (soybean; Glycine max, post-emergence, Postemergence, 62 g ai/ha, scale 0 to 100 (0 no effect, 100 complete control)): 75% | pest or weed control at 125 g/ha (kochia; Bassia scoparia, post-emergence, 125 g ai/ha, postemergence, read-out: Plant response rating (0 to 100), Kochia): 95% | pest or weed control at 250 g/ha (kochia; Bassia scoparia, post-emergence, 250 g ai/ha, postemergence, read-out: Plant response rating (0 to 100), Kochia): 98% | pest or weed control at 31 g/ha (kochia; Bassia scoparia, post-emergence, Postemergence, 31 g ai/ha, scale 0 to 100 (0 no effect, 100 complete control), 13 to 15 days, read-out: Plant response rating, Kochia): 20% | pest or weed control at 62 g/ha (kochia; Bassia scoparia, post-emergence, Postemergence, 62 g ai/ha, scale 0 to 100 (0 no effect, 100 complete control), read-out: Plant response rating, Kochia): 40%
